These results are taken from PMC8981170 (RSC Advances, 2022).

Values joined by “and” are separate entries in the source; they are usually repeats but may differ in a detail not shown here. Equal entries are not always repeated.

The target of assay [1] is T1, Sirt1 (Homo sapiens, UniProt Q96EB6).
T1 sequence (Q96EB6 1-747): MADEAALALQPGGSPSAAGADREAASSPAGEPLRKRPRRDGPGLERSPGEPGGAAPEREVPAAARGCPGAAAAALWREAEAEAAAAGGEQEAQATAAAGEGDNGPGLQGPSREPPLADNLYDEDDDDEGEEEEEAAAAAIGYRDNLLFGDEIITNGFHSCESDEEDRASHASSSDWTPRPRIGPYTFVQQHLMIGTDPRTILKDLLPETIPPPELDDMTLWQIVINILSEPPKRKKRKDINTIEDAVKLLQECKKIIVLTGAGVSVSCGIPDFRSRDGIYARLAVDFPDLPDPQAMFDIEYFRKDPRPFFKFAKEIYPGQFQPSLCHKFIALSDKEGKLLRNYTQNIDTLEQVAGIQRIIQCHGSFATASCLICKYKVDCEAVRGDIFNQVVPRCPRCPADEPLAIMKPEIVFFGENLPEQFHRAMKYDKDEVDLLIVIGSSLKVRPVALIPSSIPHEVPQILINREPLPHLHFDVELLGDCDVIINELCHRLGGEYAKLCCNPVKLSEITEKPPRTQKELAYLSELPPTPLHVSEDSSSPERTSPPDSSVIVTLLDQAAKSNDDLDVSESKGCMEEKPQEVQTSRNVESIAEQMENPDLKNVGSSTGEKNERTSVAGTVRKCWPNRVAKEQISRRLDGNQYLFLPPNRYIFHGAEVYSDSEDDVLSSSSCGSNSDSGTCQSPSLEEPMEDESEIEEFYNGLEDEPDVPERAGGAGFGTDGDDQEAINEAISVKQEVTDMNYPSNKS
Description: Enzyme-based Sirt1 inhibition assay at 10 μM. The class given is biochemical. The following applies: for % inhibition at 10 μM Sirt1: mean of three independent experiments; for inhibition at 10 µM: read-out: % inhibition at 10 μM Sirt1, 10 μM, mean of three independent experiments.

Assay [2] concerns the target T1, Sirt1. The experiment in a line: Cell-based Sirt1 inhibition in HepG2 cells. Conditions: HepG2, read-out: % Inhibition Sirt1, HepG2 cells, 10 μM, 6 h; n = 3.
The subject of the next assay is Sirt2 + Sirt3. The experiment in a line: Cell-based Sirt2/Sirt3 joint inhibition in HepG2 cells. Also on record: species or system human. The following applies: 10 μM, 6 h.
Another assay deals with HepG2 cells. The experiment in a line: MTT cell viability assay, HepG2. The following applies: 1-400 μM, 24 h. Format: cell-based, human. For orientation: Tetrazolium assays rely on reduction of a dye to a coloured formazan, in cell work by metabolically active cells.
In another assay the test system is MCF7 cells. Description: MTT cell viability assay, MCF7. The class given is cell-based, human. The following applies: 1-400 μM, 24 h.
Another assay has as its system Ac-p53 in HepG2 cells. The experiment in a line: Western blotting for acetylated p53. The class given is cell-based, human. Conditions: 25 μM, 48 h, western blot.
In assay [3] the target is T1, Sirt1. The experiment in a line: Concentration-dependent Sirt1 inhibition.
The mark [4] stands for this setting: joint inhibition of Sirt2 and Sirt3, n = 3, 10 µM.

With `COc1ccc(-c2nc3cc(C(=O)N[C@@H](C)C(=O)O)ccc3n2C2CCCCC2)cc1` [Compound 7a], at Sirt1 [1], the “% inhibition at 10 μM Sirt1” value is given as 88.03% and the inhibition at 10 µM was > 80%. Moreover, the inhibition at 10 µM at Sirt1 [2] was < 1%.

Consider `COc1ccc(-c2nc3cc(C(=O)N[C@H](C(=O)O)C(C)C)ccc3n2C2CCCCC2)cc1` [Compound 7b], for which the “% inhibition at 10 μM Sirt1” value on Sirt1 [1] was 88.18%. Moreover, the inhibition at 10 µM on Sirt1 [1] was > 80%; at Sirt1 [2], < 1%.

As to `COc1ccc(-c2nc3cc(C(=O)N[C@@H](CC(C)C)C(=O)O)ccc3n2C2CCCCC2)cc1` [Compound 7c], the “% inhibition at 10 μM Sirt1” value at Sirt1 [1] was 86.34%. Besides, the values for the inhibition at 10 µM on Sirt1 [1] and on Sirt1 [2] were > 80% and 3.24 ± 0.27%, respectively. Also, the “% Inhibition Sirt2 + Sirt3” value with Sirt2 + Sirt3 (joint inhibition of Sirt2 and Sirt3, n = 3) is on record as 5.21 ± 0.78%.

With `COc1ccc(-c2nc3cc(C(=O)N[C@@H](Cc4c[nH]c5ccccc45)C(=O)O)ccc3n2C2CCCCC2)cc1` [Compound 7d], on Sirt1 [1], the “% inhibition at 10 μM Sirt1” value is listed as 89.99% and the inhibition at 10 µM is > 80%. Further, the inhibition at 10 µM on Sirt1 [2] was ≥ 30%. Also, in the assay with Sirt2 + Sirt3 (setting [4]), the “% Inhibition Sirt2 + Sirt3” value is 19% and 20% and 19.89 ± 0.89%. For the same compound, the “Effect on HepG2 cell viability” value in the assay with HepG2 cells is “continuous decrease in cell viability with increasing inhibitor concentration”. Moreover, in the assay with MCF7 cells, the “Effect on MCF7 cell viability” value was “continuous and comparatively higher decrease in cell viability with increasing inhibitor concentration”. Also, the “Ac-p53 levels in HepG2 cells” value in the assay on Ac-p53 in HepG2 cells is given as “increased the Ac-p53 levels in HepG2 cells comparable to the positive control”. On Sirt1 [3], this compound had a half-inhibitory concentration (IC50) of 770 ± 40 nM.

Regarding `C[C@H](NC(=O)c1ccc2c(c1)nc(-c1ccc(F)cc1)n2C1CCCCC1)C(=O)O` [Compound 7e], on Sirt1 [1], the inhibition at 10 µM was < 30%.

Regarding `CC(C)[C@H](NC(=O)c1ccc2c(c1)nc(-c1ccc(F)cc1)n2C1CCCCC1)C(=O)O` [Compound 7f], the inhibition at 10 µM on Sirt1 [1] is < 30%.

For `CC(C)C[C@H](NC(=O)c1ccc2c(c1)nc(-c1ccc(F)cc1)n2C1CCCCC1)C(=O)O` [Compound 7g], the inhibition at 10 µM on Sirt1 [1] was 80.8%; at Sirt1 [2], < 1%.

For `O=C(N[C@@H](Cc1c[nH]c2ccccc12)C(=O)O)c1ccc2c(c1)nc(-c1ccc(F)cc1)n2C1CCCCC1` [Compound 7h], the inhibition at 10 µM on Sirt1 [1] is 86.8%; at Sirt1 [2] it was < 1%.

For `O=C(N[C@@H](Cc1c[nH]c2ccccc12)C(=O)O)c1ccc2c(c1)nc(-c1c(F)cccc1Cl)n2C1CCCCC1` [Compound 7l], the inhibition at 10 µM at Sirt1 [1] was < 30%.

As for `COc1ccc(-c2n[nH]cc2C=C2SC(=S)N([C@@H](C)C(=O)O)C2=O)cc1` [Compound 13b], the inhibition at 10 µM on Sirt1 [1] was < 30%.

Turning to `COc1ccc(-c2n[nH]cc2C=C2SC(=S)N([C@@H](Cc3ccccc3)C(=O)O)C2=O)cc1` [Compound 13c], the inhibition at 10 µM on Sirt1 [1] was < 30%.

As for `COc1ccc(-c2n[nH]cc2C=C2SC(=S)N([C@@H](Cc3c[nH]c4ccccc34)C(=O)O)C2=O)cc1` [Compound 13d], the “% inhibition at 10 μM Sirt1” value on Sirt1 [1] is 90.64%. Further, the inhibition at 10 µM on Sirt1 [1] is > 80%; at Sirt1 [2], ≥ 30%. Besides, in the assay on Sirt2 + Sirt3 (setting [4]), the “% Inhibition Sirt2 + Sirt3” value is 6% and 6.04 ± 0.91%. Further, the “Effect on MCF7 cell viability” value with MCF7 cells is given as “no significant changes in cell viability”. Also, in the assay with Ac-p53 in HepG2 cells, the “Ac-p53 levels in HepG2 cells” value is recorded as “no major change”. On Sirt1 [3], this compound registered an IC50 of 710 ± 30 nM.

With `C[C@@H](C(=O)O)N1C(=O)C(=Cc2c[nH]nc2-c2cc(F)cc(F)c2)SC1=S` [Compound 13f], the inhibition at 10 µM at Sirt1 [1] was < 30%.

For the compound `O=C(O)[C@H](Cc1ccccc1)N1C(=O)C(=Cc2c[nH]nc2-c2cc(F)cc(F)c2)SC1=S` [Compound 13g], on Sirt1 [1], the inhibition at 10 µM was < 30%.

As to `O=C(O)[C@H](Cc1c[nH]c2ccccc12)N1C(=O)C(=Cc2c[nH]nc2-c2cc(F)cc(F)c2)SC1=S` [Compound 13h], at Sirt1 [1], the “% inhibition at 10 μM Sirt1” value came out at 89.15% and the inhibition at 10 µM is > 80%. For the same compound, the inhibition at 10 µM at Sirt1 [2] is ≥ 30%. Besides, the “% Inhibition Sirt2 + Sirt3” value in the assay on Sirt2 + Sirt3 (setting [4]) is 10% and 9.53 ± 0.65%. In addition, the “Effect on HepG2 cell viability” value with HepG2 cells is reported as “very less decrease in cell viability”. For the same compound, in the assay on MCF7 cells, the “Effect on MCF7 cell viability” value was “no significant changes in cell viability”. Moreover, the “Ac-p53 levels in HepG2 cells” value in the assay on Ac-p53 in HepG2 cells is reported as “no major change”. At Sirt1 [3], this compound gave an IC50 of 660 ± 20 nM.

In the case of `C[C@@H](C(=O)O)N1C(=O)C(=Cc2c[nH]nc2-c2ccc([N+](=O)[O-])cc2)SC1=S` [Compound 13j], the inhibition at 10 µM on Sirt1 [1] is < 30%.

As for `O=C(O)[C@H](Cc1ccccc1)N1C(=O)C(=Cc2c[nH]nc2-c2ccc([N+](=O)[O-])cc2)SC1=S` [Compound 13k], the inhibition at 10 µM on Sirt1 [1] was < 30%.

Turning to `O=C(O)[C@H](Cc1c[nH]c2ccccc12)N1C(=O)C(=Cc2c[nH]nc2-c2ccc([N+](=O)[O-])cc2)SC1=S` [Compound 13l], at Sirt1 [1], the “% inhibition at 10 μM Sirt1” value is on record as 89.64% and the inhibition at 10 µM is > 80%. Moreover, the inhibition at 10 µM on Sirt1 [2] is ≥ 30%. Besides, in the assay on Sirt2 + Sirt3 (setting [4]), the “% Inhibition Sirt2 + Sirt3” value is 9% and 9.47 ± 0.92%. In addition, the “Effect on HepG2 cell viability” value in the assay on HepG2 cells is on record as “very less decrease in cell viability”. Also, in the assay with MCF7 cells, the “Effect on MCF7 cell viability” value is on record as “no significant changes in cell viability”. Besides, the “Ac-p53 levels in HepG2 cells” value in the assay with Ac-p53 in HepG2 cells is recorded as “no major change”. The compound also had an IC50 on Sirt1 [3] of 730 ± 60 nM.

As a reminder, the % inhibition is the drop in the measured response relative to a control, in per cent. Usually inhibition stands for how much of the control response was suppressed. The IC50 is the concentration that gives 50% inhibition. The low end stands for higher potency, the high end for lower potency.
